Laboratory results as given in patent US12349708B2, “Use and methods of 1,3-propanediol to improve taste and/or off-taste qualities” (Primient Covation LLC, priority 2019, dated 2025).
“Also recorded” adds a separate entry of the source.

Assays:
[1] = tested on: descriptive panel of 8 panelists; test: Descriptive analysis of 5HE, BANG and energy shot prototype drinks with and without bioPDO (Example 6); format: in vivo, human; details: addition of bioPDO (0.1%)
Protocol: A formal sensory testing called descriptive analysis (DA) was performed by 8 trained panelists in triplicate (n=24) on energy shot prototype, BANG prototype samples, and 5HE SHOT prototype samples with & without bioPDO. All samples were served to panelists at ambient temperature 20±2° C.
A qualified descriptive panel of 8 panelists, experienced in the sensory analysis of a range of products, was used for this research.
The protocol for descriptive analysis was divided into two distinct phases. 1) During the panel orientation phase, panelists tasted the samples and formulated a lexicon of descriptive taste, mouthfeel, aftertaste and after feel attributes to describe them. A final list of 3 taste, 3 mouthfeel, 3 aftertaste and 1 after feel attributes were determined (Table 37). During the sample testing phase, which took place over 2 separate days, the products were evaluated in triplicate (total evaluations n=24). […]
Following consumption of the 1st sip, panelists assessed the attribute ‘initial harshness mouthfeel’. The remaining attributes (including ‘harshness mouthfeel’) were then measured by panelists on the 2nd sip. Aftertaste/feel attributes were measured 30 seconds after ingestion of the 2nd sip. […]
The sensory attributes of the products were scored on unstructured 10 cm line scales labeled at both ends with extremes of each descriptive term. […]

[2] = Taste of juices and yogurts with 1,3-propanediol; format: in vivo
[3] = Comparison of energy shot prototypes with and without caffeine and bioPDO (Example 7); format: in vivo, human; details: samples without caffeine
Protocol: • 1. Take 1st sip from a full 30 mL medicine cup, taste and swallow the 1st sample, wait 10 seconds, then take a 2nd sip and lock it into memory. Wait for 10 seconds. • 2. Proceed with 2nd sample. Taste 1st sip of the 2nd sample, wait for 10 seconds, and then use the 2nd sip to compare to the 2nd sip of the 1st sample. • 3. Rinse with DW and wait for approximately 15 seconds. Repeat step 2 for each if extra sampling needed, not to exceed four samples at a time.
Each paired sample evaluation was repeated in duplicate with at least a 10-minute break and a carbon-treated water rinse.
The following samples were prepared for this study: • 1. Existing Sample #3A (Energy shot prototype) without bioPDO. • 2. Existing Sample #3B (Energy shot prototype) with bioPDO. • 3. New Sample #4A with similar levels of sucralose and malic acid as Sample #3A, BUT without bioPDO and caffeine as an experimental sample. • 4. New Sample #4B with similar levels of sucralose, malic acid and bioPDO as Sample #3B, BUT without caffeine as an experimental sample. Results
This study was designed so it would be possible to directly identify any other ‘off-taste’ attribute. […] Below are the comparative sensorial evaluation results in Table 42 including their specific sample formulations, observations and results. Keywords of SUL, MA and CAF are sucralose, malic acid and caffeine, respectively.

[4] = tested on: experienced and trained panelist; test: Sensorial description of energy drinks and additive solutions with propylene glycol or biologically-produced 1,3-propanediol (multi-sip-and-swallow taste method); details: for Sensorial Description: RT; for increase of sweetness equivalent: with prior DW sipping; for concentration yielding the most consistent reduction in unpleasant taste/masking off-tastes: in vivo; for taste quality of 5-hour ENERGY shots and Bang energy drink: included in 5-hour ENERGY shots and Bang energy drink; for overall tasting quality vs propylene glycol: three additive solutions; for tasting qualities vs propylene glycol: two additive malic acid and sucralose solutions;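 on all read-outs here: propylene glycol or 1,3-propanediol added at 0.01, 0.1 or 1.0%, tasted by multi-sip-and-swallow in duplicate, compared with matching controls lacking either additive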
[5] = PG samples tasted before PDO samples

OCCCO [PDO, 1,3-propanediol]
overall taste quality of energy shots/drink [1]: significantly improves overall taste quality
taste modulation ([2]; Greek yogurt, with vs without): less bitter and sweeter
taste modulation ([2]; Vanilla yogurt, with vs without): less bitter and somewhat sweeter
taste modulation ([2]; cranberry juice): reduced both the bitterness and the sweetness
taste modulation ([2]; grapefruit juice): decrease the bitterness and increase the sweetness
taste modulation ([2]; orange juice, with vs without): less bitter and somewhat sweeter
modulation of sweet and sour intensities [3]: does not positively or negatively modulate the sweet and sour intensities
Sensorial Description ([4]; 0.01% PG or PDO in 79 ppm sucralose (5% SE) in distilled water): Same as 0.01% PG results.
Sensorial Description ([4]; 0.01% PG or PDO in 2,000 ppm sucralose in distilled water): (small sip): Similar results as 0.01% PG. Direct
Sensorial Description ([4]; 0.01% PG or PDO in 3,338 ppm caffeine in distilled water (caffeine shot)): (small sip): similar to Control #65.
Sensorial Description ([4]; 0.01% PG or PDO in 10,500 ppm malic acid and 2,000 ppm sucralose in distilled water): Little to no sweetness and sourness, similar
Sensorial Description ([4]; 0.01% PG or PDO in 10,500 ppm malic acid, 2,000 ppm sucralose, 3,338 ppm caffeine in distilled water): Significantly less sweet intensity, less and different
Sensorial Description ([4]; 0.01% PG or PDO in B vitamins at 5-hour Energy shot concentrations in distilled water): Slightly different from Control (upfront smooth-like)
Sensorial Description ([4]; 0.01% PG or PDO in Bang energy drink): Still slow onset sourness, less sweetness (more
Sensorial Description ([4]; 0.01% PG or PDO in Berry flavor in distilled water): No dry taste effect, slight less flavor.
Sensorial Description ([4]; 0.01% PG or PDO in Monster Energy Zero Ultra): Significantly less off-taste, still strong sweetness and
Sensorial Description ([4]; 0.01% PG or PDO in Monster Energy drink): Note: Loss of carbonation. No carbonic acid off-
Sensorial Description ([4]; 0.01% PG or PDO in NOS High Performance Energy Drink): Less Sweet, smoother, no off-taste, significant less
Sensorial Description ([4]; 0.01% PG or PDO in Orange 5-hour ENERGY shot (5HE Orange)): Not significantly less flavor, tasted better than
Sensorial Description ([4]; 0.01% PG or PDO in Red Bull Energy Drink): Better taste overall and less off taste than 0.01% PG,
Sensorial Description ([4]; 0.01% PG or PDO in Red Bull Sugar Free): Much better overall tasting quality, significantly less
Sensorial Description ([4]; 0.01% PG or PDO in Rockstar Original energy drink): Slight off-flavor, significantly less sourness, still
increase of sweetness equivalent ([4]; 0.01% in 2,000 ppm sucralose): ~45% more SE.
Sensorial Description ([4]; 0.1% PG or PDO in 238 ppm sucralose (10% SE) in distilled water): Still slightly more sweetness, thinner but still ~9-
Sensorial Description ([4]; 0.1% PG or PDO in 338 ppm caffeine in distilled water (caffeine drink)): Stronger bitterness intensity to medium level.
Sensorial Description ([4]; 0.1% PG or PDO in 2,000 ppm sucralose in distilled water): (small sip): Significantly improved sugar-like tasting
Sensorial Description ([4]; 0.1% PG or PDO in 3,338 ppm caffeine in distilled water (caffeine shot)): (small sip): similar to Control #65.
Sensorial Description ([4]; 0.1% PG or PDO in Bang energy drink): Significantly less sourness and sweetness, smoother,
Sensorial Description ([4]; 0.1% PG or PDO in Berry 5-hour ENERGY shot (5HE Berry)): Significantly better tasting quality than 0.1% PG,
Sensorial Description ([4]; 0.1% PG or PDO in Berry flavor in distilled water): Less dry than 0.01% PDO, slight less flavor.
Sensorial Description ([4]; 0.1% PG or PDO in Monster Energy Zero Ultra): More suitable tasting quality (less than 1% but more
Sensorial Description ([4]; 0.1% PG or PDO in Monster Energy drink): Note: Loss of carbonation. Similar to 0.01% PDO,
Sensorial Description ([4]; 0.1% PG or PDO in Red Bull Energy Drink): Note: Significant loss of carbonation. Still slight-
Sensorial Description ([4]; 0.1% PG or PDO in Red Bull Sugar Free): Flatter than 0.01% PDO, low-med flavor, low-med
increase of sweetness equivalent ([4]; 0.1% in 2,000 ppm sucralose): ~45% more SE.
taste effect at 1% (10,000 ppm) ([4]; 1% / 1.0% (10,000 ppm) in the compositions studied, listed as biologically-produced 1,3-propanediol): sometimes imparted a smoke and/or off-flavor; also recorded: yielded no further improvement in taste perception
Sensorial Description ([4]; 1.0% PG or PDO in 79 ppm sucralose (5% SE) in distilled water): Significant off-flavor note, chemical-like note,
Sensorial Description ([4]; 1.0% PG or PDO in 238 ppm sucralose (10% SE) in distilled water): Off-flavor, thinner-like or chemical-like note,
Sensorial Description ([4]; 1.0% PG or PDO in 338 ppm caffeine in distilled water (caffeine drink)): Off-flavor taste, delayed onset of bitterness.
Sensorial Description ([4]; 1.0% PG or PDO in 2,000 ppm sucralose in distilled water): (small sip): off-flavor chemical-like note (plastic-
Sensorial Description ([4]; 1.0% PG or PDO in 3,338 ppm caffeine in distilled water (caffeine shot)): (small sip): similar to Control #65, slightly
Sensorial Description ([4]; 1.0% PG or PDO in 10,500 ppm malic acid and 2,000 ppm sucralose in distilled water): Weak off-flavor across the taste, similar qualities
Sensorial Description ([4]; 1.0% PG or PDO in 10,500 ppm malic acid in distilled water): No off-flavor for sure, however possible Invisible-
Sensorial Description ([4]; 1.0% PG or PDO in 10,500 ppm malic acid in distilled water, listed as biologically-produced 1,3-propanediol): did not present any expected off-flavor
Sensorial Description ([4]; 1.0% PG or PDO in 10,500 ppm malic acid, 2,000 ppm sucralose, 3,338 ppm caffeine in distilled water): Very weak off-flavor note, thinner sourness, less
Sensorial Description ([4]; 1.0% PG or PDO in B vitamins at 5-hour Energy shot concentrations in distilled water): Slight-medium off-flavor note,
Sensorial Description ([4]; 1.0% PG or PDO in Bang energy drink): Slight and low off-flavor at middle tasting time,
Sensorial Description ([4]; 1.0% PG or PDO in Berry flavor in distilled water): Moderate chemical-like off-flavor at later
Sensorial Description ([4]; 1.0% PG or PDO in Monster Energy Zero Ultra): Smoother, medium off flavor at middle tasting
Sensorial Description ([4]; 1.0% PG or PDO in Monster Energy drink): Note: Little carbonation. Significant undescribed
Sensorial Description ([4]; 1.0% PG or PDO in NOS High Performance Energy Drink): Off-flavor in middle taste, no or low sourness, not
Sensorial Description ([4]; 1.0% PG or PDO in Orange 5-hour ENERGY shot (5HE Orange)): Slight or faint off-flavor in background (non-
Sensorial Description ([4]; 1.0% PG or PDO in Red Bull Energy Drink): Note: significantly less or no carbonation. Significant
reduction in unpleasant taste or masking of off-taste ([4]; 2,000 ppm, 238 ppm, or 70 ppm sucralose in distilled water): No reduction in unpleasant taste, or masking of off-taste
reduction of unpleasant taste / masking of bitterness ([4]; 3,382 ppm or 338 ppm caffeine in distilled water): did not reduce the unpleasant taste, or mask the bitterness
maximum useful concentration ([4]; across a broad range of food, beverage, and confection compositions): 0.5%
taste modulation of B vitamins ([4]; aqueous B vitamins at concentrations comparable to 5-hour ENERGY shots): did not positively modulate
modulation of berry flavor ([4]; berry flavor in distilled water): Neither biologically-produced 1,3-propanediol, nor propylene glycol modulated the flavor
concentration yielding the most consistent reduction in unpleasant taste/masking off-tastes ([4]; listed as bioPDO): ca. 0.1%
concentration yielding the most consistent reduction in unpleasant taste/masking off-tastes ([4]; listed as biologically-produced 1,3-propane diol): about 0.1%
taste quality of 5-hour ENERGY shots and Bang energy drink ([4]; listed as Biologically-produced 1,3-propanediol): improved the taste quality
taste quality of 5-hour ENERGY shots and Bang energy drink ([4]; listed as biologically-produced 1,3-propanediol): positive taste modulation effect of PDO
taste modulation or sour masking ([4]; malic acid at 10,500 ppm in distilled water): no positive taste modulation or sour masking effect
taste modulation of three additive solution ([4]; malic acid, sucralose and caffeine at 5-hour ENERGY concentrations in distilled water, compared to solution with propylene glycol): positive taste modulation, or a reduction of unpleasant tastes
taste modulation of single additive solutions ([4]; separate caffeine, malic acid, and sucralose solutions at mega-dose levels, listed as biologically-produced 1,3-propanediol): did not positively modulate the taste or mask the bitter, off, or sour tastes; also recorded: neither propylene glycol, nor biologically-produced 1,3-propanediol modulated the taste
taste modulation of two additive solutions ([4]; solutions containing a blend of two taste additives): most positive taste modulation effect
overall tasting quality vs propylene glycol ([4]; PDO samples tasted before PG samples, similar levels): better overall tasting quality
overall tasting quality vs propylene glycol [4, 5]: no tasting quality differences
tasting qualities vs propylene glycol [4, 5]: tasted marginally better than the propylene glycol-containing samples
tasting qualities vs propylene glycol ([4]; direct comparison of PDO to PG): better tasting qualities than those with propylene glycol
